Measurements: patent publication US9493466B2, “Treatment of cancer with TOR kinase inhibitors” (Signal Pharmaceuticals, LLC, priority 2011, dated 2016)

Assays:
Assay in all cases: Growth inhibition assay for NHL lines
Assay type in all cases: cell-based
NU-DHL-1 = settings: NU-DHL-1, NHL DLBCL, 96 hours, n ≧ 3
Experimental: (§1) Growth Inhibition Assay for HCC and NHL Lines. The seeding density for each cell line was optimized to ensure assay linearity in 384-well plates.
(§2) Compound 1 was dissolved in dimethyl sulfoxide (DMSO) to prepare a 10 mM stock solution. A serial titration was performed to produce a working concentration range of […] to 10 mM. Aliquots to produce final concentrations of 1.5 nM to 10 μM were spotted via an acoustic dispenser (EDC ATS-100) into an empty 384-well plate. Compound 1 was spotted in a 10-point serial dilution fashion (3-fold dilution) in duplicate within the plate. The DMSO concentration was kept constant for a final assay concentration of 0.1% DMSO. Plates were replicated for use with different cell lines and testing periods. After compound plate replication, all plates were sealed (Agilent ThermoLoc) and stored at −20° C. for up to 1 month. […] When ready for testing, plates were removed from the freezer, thawed, and unsealed just prior to the addition of the test cells. Prior to testing, cells were grown and expanded in culture flasks to provide sufficient amounts of starting material. Cells were then diluted to the appropriate densities and added directly to the compound-spotted 384-well plates. Cells were allowed to grow for 96 hours at 37° C./5% CO2. At the time when compound was added (t0), initial cell number was assessed via a viability assay (Cell Titer-Glo) by quantifying the level of luminescence generated by ATP present in viable cells. After 96 hours, cell viability of compound-treated cells was assessed via Cell Titer-Glo and luminescence measurement. Cell lines were assayed for growth inhibition by Compound 1 in at least 3 independent tests. A control cell line (the lung tumor cell line, A549) was included in each of the assays. The compound response against this control cell line was monitored closely to enable comparison of the data generated through the assay period. All data were normalized and presented as a percentage of the DMSO-treated cells. Results were then expressed as a GI50 value. The GI50 value corrects for the cell count at time zero. In addition, the IC50 value of Compound 1 for each cell line was calculated.

JVM-2 = settings: JVM-2, NHL MCL, 96 hours, n ≧ 3
Experimental: as §1, §2

SU-DHL-8 = settings: SU-DHL-8, NHL DLBCL, 96 hours, n ≧ 3
Experimental: as §1, §2

OCI-LY-10 = settings: OCI-LY-10, NHL DLBCL, 96 hours, n ≧ 3
Experimental: as §1, §2

SU-DHL-10 = settings: SU-DHL-10, NHL DLBCL, 96 hours, n ≧ 3
Experimental: as §1, §2

U-2932 = settings: U-2932, NHL DLBCL, 96 hours, n ≧ 3
Experimental: as §1, §2

SU-DHL-6 = settings: SU-DHL-6, NHL DLBCL, 96 hours, n ≧ 3
Experimental: as §1, §2

SU-DHL-4 = settings: SU-DHL-4, NHL DLBCL, 96 hours, n ≧ 3
Experimental: as §1, §2

Pfeiffer = settings: NHL DLBCL, 96 hours, n ≧ 3
Experimental: as §1, §2

SU-DHL-16 = settings: SU-DHL-16, NHL DLBCL, 96 hours, n ≧ 3
Experimental: as §1, §2

SU-DHL-5 = settings: SU-DHL-5, NHL DLBCL, 96 hours, n ≧ 3
Experimental: as §1, §2

WSU-NHL = settings: NHL FL, 96 hours, n ≧ 3
Experimental: as §1, §2

REC-1 = settings: REC-1, NHL MCL, 96 hours, n ≧ 3
Experimental: as §1, §2

OCI-LY-7 = settings: OCI-LY-7, NHL DLBCL, 96 hours, n ≧ 3
Experimental: as §1, §2

RIVA = settings: NHL DLBCL, 96 hours, n ≧ 3
Experimental: as §1, §2

KG-1 = settings: KG-1, Leukemia M-AML, 96 hours, n ≧ 3
Experimental: as §1, §2

HL-60 = settings: HL-60, Leukemia M-AML, 96 hours, n ≧ 3
Experimental: as §1, §2

RC-K8 = settings: RC-K8, NHL DLBCL, 96 hours, n ≧ 3
Experimental: as §1, §2

HT = settings: NHL DLBCL, 96 hours, n ≧ 3
Experimental: as §1, §2

OCI-LY-19 = settings: OCI-LY-19, NHL DLBCL, 96 hours, n ≧ 3
Experimental: as §1, §2

KARPAS-422 = settings: KARPAS-422, NHL DLBCL, 96 hours, n ≧ 3
Experimental: as §1, §2

KARPAS-299 = settings: KARPAS-299, ALCL T-cell, 96 hours, n ≧ 3
Experimental: as §1, §2

WSU-FSCCL = settings: NHL FL, 96 hours, n ≧ 3
Experimental: as §1, §2

JVM-13 = settings: JVM-13, NHL MCL, 96 hours, n ≧ 3
Experimental: as §1, §2

CO[C@H]1CC[C@H](N2C(=O)CNc3ncc(-c4ccc(C(C)(C)O)nc4)nc32)CC1 [Compound 1, 7-(6-(2-hydroxypropan-2-yl)pyridin-3-yl)-1-((1r,4r)-4-methoxycyclohexyl)-3,4-dihydropyrazino-[2,3-b]pyrazin-2(1H)-one]
GI50 (NU-DHL-1): 80 ± 30 nM | IC50 (NU-DHL-1): 110 ± 50 nM | GI50 (JVM-2): 260 ± 50 nM | IC50 (JVM-2): 440 ± 180 nM | GI50 (SU-DHL-8): 80 ± 40 nM | IC50 (SU-DHL-8): 100 ± 40 nM | GI50 (OCI-LY-10): 140 ± 40 nM | IC50 (OCI-LY-10): 190 ± 40 nM | GI50 (SU-DHL-10): 200 ± 20 nM | IC50 (SU-DHL-10): 200 ± 30 nM | GI50 (U-2932): 300 ± 30 nM | IC50 (U-2932): 450 ± 10 nM | GI50 (SU-DHL-6): 160 ± 40 nM | IC50 (SU-DHL-6): 200 ± 60 nM | GI50 (SU-DHL-4): 110 ± 40 nM | IC50 (SU-DHL-4): 120 ± 50 nM | GI50 (Pfeiffer): 90 ± 40 nM | IC50 (Pfeiffer): 190 ± 70 nM | GI50 (SU-DHL-16): 110 ± 20 nM | IC50 (SU-DHL-16): 110 ± 20 nM | GI50 (SU-DHL-5): 230 ± 130 nM | IC50 (SU-DHL-5): 260 ± 140 nM | GI50 (WSU-NHL): 50 nM | IC50 (WSU-NHL): 70 nM | GI50 (REC-1): 200 ± 40 nM | IC50 (REC-1): 260 ± 50 nM | GI50 (OCI-LY-7): 190 ± 30 nM | IC50 (OCI-LY-7): 250 ± 30 nM | GI50 (RIVA): 20 ± 10 nM | IC50 (RIVA): 100 ± 50 nM | GI50 (KG-1): 60 ± 20 nM | IC50 (KG-1): 370 ± 40 nM | GI50 (HL-60): 240 ± 60 nM | IC50 (HL-60): 380 ± 130 nM | GI50 (RC-K8): 80 ± 10 nM | IC50 (RC-K8): 150 ± 30 nM | GI50 (HT): 110 ± 40 nM | IC50 (HT): 170 ± 50 nM | GI50 (OCI-LY-19): 220 ± 60 nM | IC50 (OCI-LY-19): 350 ± 80 nM | GI50 (KARPAS-422): 20 ± 10 nM | IC50 (KARPAS-422): 20 ± 10 nM | GI50 (KARPAS-299): 330 ± 120 nM | IC50 (KARPAS-299): 470 ± 220 nM | GI50 (WSU-FSCCL): 160 ± 40 nM | IC50 (WSU-FSCCL): 190 ± 40 nM | GI50 (JVM-13): 1770 ± 1610 nM | IC50 (JVM-13): 3490 ± 2480 nM
